# Experimental data taken from US20080025938A1, “Method and composition for permanently shaping hair” (priority 2006, published 2008).
# What was measured:
# hair = assay: Permanent waving of hair on curlers with the composition, then oxidative fixing; assessed by hairdresser and customer; format: in vivo, human; settings: used alone as the hair keratine reducing agent
# Description: The method of permanent shaping of human hair according to the invention is defined as: A method for permanent shaping of hair, said method comprising the steps of: • (a) putting the hair in a desired shape; • (b) before and/or after the hair is put in the desired shape, applying an amount of a permanent shaping composition to the hair, and allowing the permanent shaping composition to act on the hair for a predetermined acting time sufficient for the permanent shaping of the hair; • (c) subsequently rinsing the hair with water or applying an intermediate treatment agent; • (d) performing an oxidative post-treatment of the hair; • (e) after the oxidative post-treatment, rinsing the hair with water and drying the hair, wherein said permanent shaping composition is a composition according to any-one of claims 1 to 13. Details of the method are given as follows. First the hair (which is washed and towel-dried) is separated into multiple sections and then these sections are rolled onto curlers. […] After the rolling on curlers is finished, the curlers are thoroughly wetted down using the required quantity of the permanent shaping composition, preferably about 60 g to about 120 g. […] The fixing composition is used in a quantity of about 50 g to about 200 g, preferably about 80 g to about 100 g, depending on hair thickness and length. […]
# [1] = versus N-methylmercaptoacetamide and N-hydroxyethylmercaptoacetamide; cited from earlier work
compound,measurement,setting,value
O=C(CS)NCCCO [N-(3′-hydroxypropyl)-2-mercapto-acetamide],"fastness of the permanent shaped hair to humidity, particularly sweat",hair,not sufficient
same,sensitization rates,[1],substantially lower sensitization rates
